Reference: patent US8093393B2, “Cationic ceramides, and analogs thereof, and their use for preventing or treating cancer” (MUSC Foundation for Research Development, priority 2004, dated 2012)

Experiments:
[1] = tested on: L929 mouse fibroblast cells; test: TNFα-induced PGE2 release; assay type: cell-based
Excerpt: Interleukin-1 is a major inducer of inflammation and TNF is an important regulator of the reaction. Both cytokines can activate ceramidase, and thus inhibiting the activity of ceramidase can result in an anti-inflammatory effect. This may involve the prevention of the formation of sphingosine and sphingosine phosphate which have pro-inflammatory effects. Also, inhibition of ceramidase may prevent the hyperproliferation of immune cells that are important for inflammation. […] The release of PGE2 is also shown to be inhibited by D-(N-myristolyamino)-1-phenyl-1-propanol), D-MAPP, which is an inhibitor of one of the ceramidase. This observation may be important for inhibiting inflammatory reactions that occur in conditions, such as but not limited to rheumatoid arthritis. Thus, it is possible to treat or prevent inflammation by regulating the level of cellular ceramide using the method of the invention. As discussed above, ceramide level can be increased by administering compounds of the present invention that can inhibit mitochondrial ceramidase.

UM-SCC-22A xenografts = details: 40 mg/kg/each IP every 4 days for 20 days
Protocol: A) Upper Panel: In vivo therapeutic efficacy of L-t-C6-Pyr-Cer in combination with GMZ was determined in SKID mice harboring the UM-SCC-22A xenografts implanted in both flanks. The animals were treated with L-t-C6-Pyr-Cer and GMZ at 40 mg/kg/each every 4 days for 20 days. […] In these experiments, each group contained 6 mice, harboring 12 tumors, in this study. Error bars represent standard deviations, and p values were calculated. […] C) The blood counts, the levels of serum enzymes, and electrolytes were analyzed in response to L-t-C6-Pyr-Cer alone or in combination with GMZ in SKID mice.
After tumors were grown to about 200-400 mm^3 (about two weeks after implantation), the mice were treated without or with chemotherapeutic agents with intraperitoneal (IP) injection (alone or in combination) at half of their maximum tolerated doses (MTD) every 4 days for 20 days. Tumor volumes and the weights of the animals were measured before each treatment, and tumor sizes were measured at the end of the study. The endpoint was tumor rate of growth and/or tumor volume, which was calculated using the formula: length×width^2×0.52. Each experiment included at least 6 mice (which harbored two SCC tumors in flanks) per each treatment, and experiments were done at least in two independent trials.

telomeres = test: Telomere length (TRF) in tumor tissues; assay type: in vivo, human; details: versus untreated controls
Excerpt: FIG. 29. […] In (B), DNA samples obtained from tumors treated with GMZ (G), L-t-C6-Pyr-Cer (Cer), and the combination of L-t-C6-Pyr-Cer with GMZ (G/C, lanes 2-4, respectively) were compared to that of untreated (U) tumors (lane 1). Lanes 5 and 6 contain DNA samples with low (L) and high (H) molecular weight (3.9 and 10.2 kb, respectively) telomeres. In (D) The levels of hTERT protein in samples obtained from tumors treated with GMZ (G), L-t-C6-Pyr-Cer (Cer), and the combination of L-t-C6-Pyr-Cer with GMZ (G/Cer, lanes 2-4, respectively) were determined by Western blot analysis using rabbit polyclonal anti-hTERT antibody, and compared to that of untreated (U) tumors (lane 1). Lanes 5 and 6 contain samples from telomerase positive (+) and negative (−) extracts. Beta-actin levels of these samples were used as loading controls (lanes 1-6, lower panel). The data shown are representative of two independent trials, and error bars represent standard deviations.
Analysis of telomere length in tumor tissues. The measurement of telomere length was performed in total genomic DNA samples isolated from tumor tissues of the SCID mice using Telomere Restriction Fragment (TRF) Length measurement kit (Roche) by Southern blotting as described in Sundararaj, et al. J Biol Chem 2004; 279:6152-6162.

telomerase = test: Telomerase activity (TRAP) in treated cells; assay type: cell-based, human; details: UM-SCC-22A, 48 hr, C6-Pyr-Cer 1 μM, GMZ 100 nM
Protocol: FIGS. 13A to 13B. Roles of CCPS on cell cycle profiles, and telomerase activity of UM-SCC-22A cells. (FIG. 13A) The effects of D-e-C6—, D-e-C12- and L-th-C12-pyridinium ceramides (at 1 μM for 48 hr) on cell cycle profiles of UM-SCC-22A cells were determined and compared to that of untreated cells using flow cytometry as described in Materials and Methods. (FIG. 13B) The effects of 0, 100, 250 and 500 nM L-t-C6-Pyr-Cer (LCL-124) (lanes 1-4, respectively) at 96 hr treatment in UM-SCC-22A cells on telomerase activity was assessed using TRAP assay. Lanes 5 and 6 contain positive (+) and negative (−) controls. To examine whether C6-Pyr-Cer inhibits telomerase activity directly, cell extracts (as shown in lane 1) were incubated in the presence of various concentrations of L-th-C6-Pyr-ceramide (LCL-124; 10, 20 and 100 μM) and telomerase activity was determined using TRAP assay (lanes 7-9, respectively). The presence of non-telomeric 36 bp internal standard (IS) in the TRAP assay serves as a control for polymerase chain reaction, and used for quantitation/normalization of the activity of telomerase. The results shown are representative of at least two independent experiments.
FIGS. 14A to 14D. […] (FIG. 14A) The effects of various chemotherapeutic agents on cell growth in UM-SCC-22A cells were determined using MTT assays, and the IC50 concentrations of each agent were determined from cell growth plots as described. (FIG. 14B) The synergistic effects of DOX and L-th-C6-Pyr-Cer (LCL-124) on cell growth were assessed using isobologram studies as described in Materials and Methods. (FIG. 14C) The effects of 1 μM L-th-C6-Pyr-Cer (LCL-124) or cetyl-pyridinium-bromide, without ceramide conjugate (used as a control) on the growth inhibition potential of GMZ in UM-SCC-22A cells were determined using MTT assays. (FIG. 14D) The effects of GMZ (100 nM), L-th-C6-Pyr-Cer (LCL-124; 1 μM) or GMZ and L-th-C6-Pyr-Cer (LCL-124) (100 nM and 1 μM, respectively) on telomerase activity in UM-SCC-22A cells at 48 hr were examined using TRAP assay, and compared to that of untreated controls (lanes 2, 3, 4 and 1, respectively). The data shown are representative of at least two independent experiments performed in triplicate samples. Standard deviations in each sample were between 0.1-0.5.
Determination of telomerase activity. Telomerase activity in cell extracts was measured by the PCR-based telomere repeat amplification protocol (TRAP) using TRAPeze kit (Intergen, Gaithersburg, Md.) which includes a 36-bp internal control to allow quantification of activity. In short, the intensity of telomere-specific DNA bands, measured using Quantity One (BioRad) software, were normalized to the intensity of internal control bands for each sample on polyacrylamide gels for quantification.

UM-SCC-22A cells = test: MTT cell survival assay and isobologram studies; assay type: cell-based, human; details: Homo sapiens, read-out: IC50 of chemotherapeutic agents
[2] = mice; cited from earlier work
[3] = target: T1, dihydroceramide 4,5-desaturase (Homo sapiens, UniProt O15121); test: Conversion of dhCCPS analogs to CCPS analogs in MCF7 cells; assay type: cell-based; details: MS
T1 construct: dihydroceramide 4,5-desaturase in MCF7 cells to generate the corresponding CCPS analogs; endogenous in cells; host or cells: MCF7
T1 sequence (O15121 1-323): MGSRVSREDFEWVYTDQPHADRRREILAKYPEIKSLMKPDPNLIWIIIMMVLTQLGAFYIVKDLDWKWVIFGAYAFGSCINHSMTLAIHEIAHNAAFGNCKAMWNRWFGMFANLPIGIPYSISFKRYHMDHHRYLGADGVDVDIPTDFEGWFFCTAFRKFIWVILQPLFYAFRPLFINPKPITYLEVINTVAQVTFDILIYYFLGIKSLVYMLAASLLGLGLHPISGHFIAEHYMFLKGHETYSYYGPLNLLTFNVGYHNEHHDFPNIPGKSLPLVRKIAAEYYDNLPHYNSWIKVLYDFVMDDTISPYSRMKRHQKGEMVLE
Excerpt: Absolute levels (pmol) of dhCCPS and CCPS analogs was established by MS approach as shown in the Examples (see Section 6). Data are expressed as changes of particular dhCCPS and CCPS to the total level of dhCCPS+CCPS (100%).

MCF7 cells = details: 5 μM, 5 h
Protocol: FIGS. 4A-4C show the cellular levels of CCPS analogs. MCF 7 cells were treated with 5 μM concentration of CCPS analogs over the time and cellular level of the nonmetabolized CCPSs was measured by MS methodology as shown under Experimental. Results are expressed as % of concentration applied.
A parallel set of cells was used to determine cell proliferation and to prepare lipid extracts for MS analysis.
Briefly, for the indicated points, media was removed, cells were washed twice with PBS, scraped into cold PBS (2×1.0 ml), transferred to glass vials and centrifuged for 5 min at 800 rpm. Cell pellets corresponding to ˜1×10^6 cells, were fortified with the internal standards IS (C17 base D-erythro-sphingosine: 17Sph, C17 sphingosine-1-phosphate: 17Sph-1P, N-palmitoyl-D-erythro-C13 sphingosine: 13CC16-Cer and N-heptadecanoyl-D-erythro-C17shingosine: 17CC17-Cer) and extracted (2×2 ml) into a one-phase solvent system with ethyl acetate/iso-propanol/water (60/30/10 v/v). One ml of this extract was used for Pi determination after lipid re-extraction by the Bligh and Dyer method. Remaining lipid extract was evaporated, reconstituted in 100 μl of methanol, and samples were injected on the Surveyor/TSQ 7000 LC/MS system and gradient eluted from the BDS Hypersil C8, 150×3.2 mm, 3 μm particle size column, with 1.0 mM methanolic ammonium formate/2 mM aqueous ammonium formate mobile phase system. Peaks corresponding to the target analytes and IS were collected and processed using the Xcalibur software system.
Cellular level of CCPS analogs was established by MS methodology.

[4] = tested on: MCF7 breast carcinoma cells; test: Cell proliferation and viability, Trypan blue exclusion assay; assay type: cell-based; details: 48 h treatment; read-out: IC50, inhibitory effect on MCF7 cell growth
Protocol: FIGS. 5A-5F show the dose dependent effects of CCPS analogs on survival of MCF7 breast carcinoma cells in comparison to the activity of D-e-C6-ceramide, which is commonly used as a model of ceramide action. Cell proliferation and cell viability were determined by Trypan blue exclusion assay. These assays were performed using duplicate samples in two or three independent experiments.
Cell Proliferation: Cells were seeded into plates at a density of approx. 50% corresponding to 1×10^6 cells, in 10 ml of 10% FCS and after an over night incubation the cells were treated with LCL compounds at concentration 0-20 μM in ethanol (ethanol level was kept below 0.1%) and the changes in cell numbers after 48 h were determined and expressed as a percentage of the untreated controls.
Briefly, media was removed, cells were washed twice with PBS, detached using 1% Trypsin and centrifuged at 800 rpm. Cell pellets were resuspended in PBS and Trypan blue (Sigma Chemicals, St. Louis, Mo., USA) was added (1:1 dilution). Under light microscope, the percentage of unstained and stained cells was assessed.
To examine the anticancer activity of CCPS analogs of the invention, their inhibitory effect on MCF7 breast carcinoma cells were analyzed and compared to the activity of D-e-C6-ceramide, which is commonly used as a model of action for ceramides. Cell proliferation and cell viability were determined by Trypan blue exclusion assay.

[5] = Solubility of ceramides and ceramidoids in water

CCCCCCCCCCCCCC(=O)NC(C)C(O)c1ccccc1 [D-MAPP]
release of PGE2 [1]: inhibited

Nc1ccn([C@@H]2O[C@H](CO)[C@@H](O)C2(F)F)c(=O)n1 [GMZ, gemcitabine, reference compound]
inhibition of HNSCC tumor growth (UM-SCC-22A xenografts): some inhibition of HNSCC tumor growth | reduction of TRF (telomere) length in tumors (telomeres): ~200 bp | inhibition of telomerase activity (telomerase): 50% | IC50 (UM-SCC-22A cells): 100 to 250 nM | MTD of reference drugs (known) [2]: 80 mg/kg

CCCCCCCCCCCCCCC[C@@H](O)[C@H](CO)NC(=O)CCCCCCCCCCC[n+]1ccccc1.[Br-] [LCL249, D-erythro-2-N-[12′-(1″-Pyridinium)-dodecanoyl]-4,5-dihydrosphingosine Bromide]
metabolism of dhCCPS to the corresponding CCPS analog [3]: time dependent formation of C12-CCPS (LCL88) | Cellular level, % of concentration applied (MCF7 cells): 7%

CCCCCCCCCCCCCCC[C@@H](O)[C@H](CO)NC(=O)CCCCCCCCCCCCCCC[n+]1ccccc1.[Br-] [LCL345, D-erythro-2-N-[16′-(1″-Pyridinium)-hexadecanoyl]-4,5-dihydrosphingosine Bromide]
metabolism of dhCCPS to the corresponding CCPS analog [3]: time dependent formation of C16-CCPS (LCL30) | Cellular level, % of concentration applied (MCF7 cells): 4% | IC50 [4]: 2500 nM | Solubility at 22° C. ([5]; 22° C.): 300 µg/mL | Solubility at 22° C. ([mM]) ([5]; 22° C.): (0.42) mM | Solubility at 37° C. ([5]; 37° C.): 1400 µg/mL | Solubility at 37° C. ([mM]) ([5]; 37° C.): (2.0) mM
